One data set relates to PC-3. The data set can be described thus: Antiproliferative activity against human PC3 cells assessed as reduction in cell viability incubated for 5 days by Cell-titer Glo reagent based assay. The class given is functional.
In data set [1] the test system is Liver. The data set can be described thus: Unbound intrinsic clearance in mouse liver microsomes at 0.5 uM in presence of NADPH incubated for 5 to 30 mins by HPLC-MS/MS method. Format: ADME, microsome.
Data set [2] concerns Liver. The data set can be described thus: Unbound intrinsic clearance in human liver microsomes at 0.5 uM in presence of NADPH incubated for 5 to 30 mins by HPLC-MS/MS method. Format: ADME, microsome. In general terms: Liver microsomes are a subcellular fraction often used to study metabolism.
The nature of data set [3]: Aqueous solubility of the compound. The note with it: buffer. The class given is physicochemical.
Data set [4] concerns the target Nicotinamide phosphoribosyltransferase (Homo sapiens, UniProt P43490).
Description: Inhibition of C-terminal His-tagged human recombinant NAMPT using FK866 or isoindoline urea-based Oregon green (488) probe incubated for 3 hrs by TR-FRET assay

Sequence of Nicotinamide phosphoribosyltransferase (P43490 whole entry): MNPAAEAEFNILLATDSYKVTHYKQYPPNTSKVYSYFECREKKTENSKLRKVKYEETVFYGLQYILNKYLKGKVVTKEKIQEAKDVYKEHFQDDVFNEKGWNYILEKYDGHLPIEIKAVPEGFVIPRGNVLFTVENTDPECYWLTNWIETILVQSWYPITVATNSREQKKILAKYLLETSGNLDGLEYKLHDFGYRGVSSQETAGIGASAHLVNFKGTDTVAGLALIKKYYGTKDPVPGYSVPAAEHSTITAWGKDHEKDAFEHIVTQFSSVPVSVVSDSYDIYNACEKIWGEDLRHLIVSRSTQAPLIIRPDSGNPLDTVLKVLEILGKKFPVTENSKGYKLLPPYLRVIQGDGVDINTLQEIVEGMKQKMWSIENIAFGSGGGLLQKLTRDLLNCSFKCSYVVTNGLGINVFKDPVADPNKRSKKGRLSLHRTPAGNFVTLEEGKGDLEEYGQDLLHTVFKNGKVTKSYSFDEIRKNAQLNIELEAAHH

One may read the IC50 as the midpoint of a concentration-inhibition curve. Usually solubility stands for the concentration that dissolves in the medium under given conditions. A higher solubility goes with much dissolved substance. Take `CC(C)(C)CCNC(=O)c1ccc(NC(=O)N2Cc3ccccc3C2)cc1`: the IC50 in the data set with PC-3 (pc-3) worked out at 21 nM. Moreover, the CL free in the data set with Liver [1] stood at 145 mL/min/kg; in the data set with Liver [2], 217 mL/min/kg. In addition, the solubility in data set [3] was less than 5 µM.
In the case of `CC(C)C(=O)N1CCC(c2ccc(NC(=O)N3Cc4ccccc4C3)cc2)CC1`, the IC50 in the data set on PC-3 (Homo sapiens, PC-3, 120 h) came out at 18 nM. In addition, the CL free amounted to 367 mL/min/kg in the data set on Liver [1] and 58.3 mL/min/kg with Liver [2].
For the molecule `CC(C)CCNC(=O)c1ccc(NC(=O)N2Cc3ccc(C(F)(F)F)cc3C2)cc1`, the IC50 with PC-3 (pc-3) is greater than 10000 nM.
As to `O=C(Nc1ccc(C(=O)N2CCN(c3ccccn3)CC2)cc1)N1Cc2ccccc2C1`, the IC50 with PC-3 (Homo sapiens, PC-3, 120 h) came to 19 nM. Also, the CL free in the data set with Liver [1] was 183 mL/min/kg; in the data set with Liver [2], 63.3 mL/min/kg. In data set [3], this molecule had a solubility of less than 5 µM.
The term Ki denotes a dissociation constant, usually derived from enzyme kinetics or from competition with a known ligand. Low readings indicate a stronger hold on the target, high ones a looser hold on the target. In turn, `O=C(Nc1ccc(C2CCN(C(=O)[C@@H]3CCCO3)CC2)cc1)N1Cc2ccc(Cl)cc2C1` showed a Ki in data set [4] of 1.7 nM. In the data set on PC-3 (Homo sapiens, PC-3, 120 h), the IC50 is 7.9 nM. Further, the results for the CL free in the data set on Liver [1] and in the data set on Liver [2] were 583 mL/min/kg and 217 mL/min/kg, respectively.
`COc1cc2c(cc1OC)CN(C(=O)Nc1ccc(C(=O)NCCC(C)C)cc1)C2`: in data set [4], the Ki is greater than 9000 nM. For the same molecule, the IC50 with PC-3 (Homo sapiens, PC-3, 120 h) was greater than 10000 nM.
With `CC(C)CCn1cc(-c2ccc(NC(=O)N3Cc4ccccc4C3)cc2)cn1`, in the data set on PC-3 (Homo sapiens, PC-3, 120 h), the IC50 is 32 nM. The same molecule came in with a solubility in data set [3] of less than 5 µM.
Regarding `CC(C)CCNC(=O)c1ccc(NC(=O)N2Cc3cccc(Cl)c3C2)cc1`, the IC50 in the data set with PC-3 (pc-3) is 640 nM.
For `CC(C)CCNC(=O)c1ccc(NC(=O)N2Cc3ccc(F)cc3C2)cc1`, the IC50 in the data set with PC-3 (pc-3) was 6.5 nM.
With `CCCNC(=O)c1ccc(NC(=O)N2Cc3ccccc3C2)cc1`, the 50% inhibitory concentration (IC50) with PC-3 (pc-3) came out at 880 nM. Also, the CL free with Liver [1] came to 71.7 mL/min/kg; with Liver [2], 56.7 mL/min/kg. Besides, the solubility in data set [3] is less than 5 µM.
Take `O=C(Nc1ccc(C2CN(C(=O)c3ccccc3)C2)cc1)N1Cc2ccc(F)cc2C1`: the Ki in data set [4] was found to be 1.9 nM. Besides, the IC50 in the data set on PC-3 (Homo sapiens, PC-3, 120 h) came out at 3.9 nM. The CL free in the data set with Liver [1] worked out at 433 mL/min/kg; in the data set with Liver [2] it was 45 mL/min/kg.
On to `O=C(NCc1ccccc1)c1ccc(NC(=O)N2Cc3ccccc3C2)cc1`, for which the IC50 with PC-3 (Homo sapiens, PC-3, 120 h) was determined as 68 nM. Also, the CL free in the data set with Liver [1] turned out to be 350 mL/min/kg; in the data set on Liver [2] it was 58.3 mL/min/kg. Besides, the solubility in data set [3] is less than 5 µM.
Turning to `CC(C)CCNC(=O)c1ccc(NC(=O)N2Cc3ccccc3C2)cc1`, the IC50 in the data set on PC-3 (pc-3) came out at 38 nM. Besides, the figures for the CL free in the data set with Liver [1] and in the data set on Liver [2] were 817 mL/min/kg and 250 mL/min/kg, respectively. For the same molecule, the solubility in data set [3] was less than 5 µM.
On to `CC(C)CCNC(=O)c1ccc(NC(=O)N2Cc3ccccc3C2)cn1`, for which the IC50 with PC-3 (pc-3) was 730 nM. Also, the CL free in the data set with Liver [1] is 1250 mL/min/kg; with Liver [2], 217 mL/min/kg.
For `O=C(NCCCc1ccccc1)c1ccc(NC(=O)N2Cc3ccccc3C2)cc1`, in the data set with PC-3 (Homo sapiens, PC-3, 120 h), the IC50 was 21 nM. The CL free with Liver [2] stood at 17670 mL/min/kg. The molecule also had a solubility in data set [3] of less than 5 µM.
As for `O=C(Nc1ccc(N2CCN(C(=O)c3ccccc3)CC2)cc1)N1Cc2ccccc2C1`, in the data set with PC-3 (Homo sapiens, PC-3, 120 h), the IC50 is 84 nM. In the data set with Liver [2], the CL free was found to be 130 mL/min/kg.
`N#CN=C(NCCCCCCOc1ccc(Cl)cc1)Nc1ccncc1` [CHS-828]: in the data set on PC-3 (Homo sapiens, PC-3, 120 h), the IC50 amounted to 4.4 nM. The CL free in the data set on Liver [1] is 1360 mL/min/kg; in the data set on Liver [2], 567 mL/min/kg. This molecule also gave a solubility in data set [3] of less than 5 µM.
For `CN1CCC(C(=O)N2CCC(c3ccc(NC(=O)N4Cc5ccc(F)cc5C4)cc3)CC2)CC1`, the Ki in data set [4] was found to be 9.4 nM. Also, in the data set with PC-3 (Homo sapiens, PC-3, 120 h), the IC50 is 5.6 nM. For the same molecule, the CL free is 267 mL/min/kg in the data set with Liver [1] and 41.7 mL/min/kg in the data set on Liver [2].
As for `O=C(NCC1CCCOC1)c1ccc(NC(=O)N2Cc3ccccc3C2)cc1` (stereo not given), the IC50 in the data set on PC-3 (Homo sapiens, PC-3, 120 h) was found to be 17 nM. Moreover, the CL free in the data set on Liver [1] was determined as 75 mL/min/kg; in the data set with Liver [2], 30 mL/min/kg. In addition, the solubility in data set [3] is less than 5 µM.
On to `CC1(C(=O)N2CCC(c3ccc(NC(=O)N4Cc5ccccc5C4)cc3)CC2)COC1`, for which the affinity in data set [4], expressed as Ki, was 5.1 nM. The IC50 with PC-3 (Homo sapiens, PC-3, 120 h) is 15 nM. Besides, the CL free came out at 145 mL/min/kg in the data set with Liver [1] and 50 mL/min/kg in the data set with Liver [2].
`CC(C)CCNC(=O)c1ccc(NC(=O)N2Cc3ccccc3C2)nc1`: in the data set with PC-3 (pc-3), the IC50 was determined as 14 nM. The CL free is 283 mL/min/kg in the data set with Liver [1] and 53.3 mL/min/kg in the data set on Liver [2].
On to `O=C(NCc1ccc(S(=O)(=O)c2ccccc2)cc1)N1Cc2ccccc2C1`, for which the IC50 in the data set with PC-3 (Homo sapiens, PC-3, 120 h) was greater than 10000 nM. Besides, the CL free came out at 3670 mL/min/kg in the data set on Liver [1] and 650 mL/min/kg in the data set with Liver [2].
Regarding `O=C(/C=C/c1cccnc1)NCCCCC1CCN(C(=O)c2ccccc2)CC1` [DAPORINAD], the IC50 in the data set on PC-3 (Homo sapiens, PC-3, 120 h) came to 5.7 nM. Besides, the CL free in the data set on Liver [1] was found to be 258 mL/min/kg; in the data set on Liver [2], 91.7 mL/min/kg. In addition, the solubility in data set [3] is less than 5 µM.
For the molecule `CC(C)CCNC(=O)c1ccc(NC(=O)N2Cc3ccc(CO)cc3C2)cc1`, the IC50 with PC-3 (Homo sapiens, PC-3, 120 h) came out at 1.4 nM.
The molecule `O=C(Nc1ccc(S(=O)(=O)c2ccccc2)cc1)N1Cc2ccccc2C1` showed a Ki in data set [4] of 21 nM. Besides, in the data set on PC-3 (Homo sapiens, PC-3, 120 h), the 50% inhibitory concentration (IC50) turned out to be 30 nM. The CL free worked out at 367 mL/min/kg in the data set on Liver [1] and 73.3 mL/min/kg with Liver [2].
Consider `CC(C)CCNC(=O)c1cccc(NC(=O)N2Cc3ccccc3C2)c1`, for which the Ki in data set [4] is greater than 8900 nM. Besides, the IC50 with PC-3 (Homo sapiens, PC-3, 120 h) was greater than 12500 nM.
Regarding `O=C(NCCCCC1CCN(C(=O)c2ccccc2)CC1)N1Cc2ccccc2C1`, the IC50 in the data set on PC-3 (Homo sapiens, PC-3, 120 h) came out at 8.4 nM. For the same molecule, the CL free with Liver [1] was found to be 4670 mL/min/kg; in the data set on Liver [2], 317 mL/min/kg.
With `CC(C)CCNS(=O)(=O)c1ccc(NC(=O)N2Cc3ccccc3C2)cc1`, in the data set on PC-3 (Homo sapiens, PC-3, 120 h), the IC50 was greater than 10000 nM. The CL free in the data set on Liver [1] turned out to be 4420 mL/min/kg; in the data set on Liver [2], 433 mL/min/kg. For the same molecule, in data set [3], the solubility is less than 5 µM.
On to `COc1ccc2c(c1)CN(C(=O)Nc1ccc(C(=O)NCCC(C)C)cc1)C2`, for which the IC50 in the data set with PC-3 (pc-3) was greater than 10000 nM.
As for `CC(C)CCNC(=O)c1ccc(NC(=O)N2Cc3ccc(C#N)cc3C2)cc1`, in the data set on PC-3 (Homo sapiens, PC-3, 120 h), the IC50 is greater than 10000 nM.
`O=C(NCC1CCOC1)c1ccc(NC(=O)N2Cc3ccccc3C2)cc1` (stereo not given): the IC50 in the data set with PC-3 (pc-3) was 68 nM. The CL free with Liver [1] stood at 83 mL/min/kg; in the data set with Liver [2] it was 26.7 mL/min/kg. Also, the solubility in data set [3] was less than 5 µM.
`NC(=O)c1ccc(NC(=O)N2Cc3ccccc3C2)cc1`: in the data set with PC-3 (pc-3), the IC50 came to 8000 nM. Further, the CL free was 148 mL/min/kg in the data set with Liver [1] and 20 mL/min/kg with Liver [2]. The molecule further displayed a solubility in data set [3] of less than 5 µM.
Turning to `Cc1ccc2c(c1)CN(C(=O)Nc1ccc(C(=O)NCCC(C)C)cc1)C2`, the half-maximal inhibitory concentration (IC50) with PC-3 (Homo sapiens, PC-3, 120 h) was 10 nM.
As for `CCC(C)C(=O)N1CCC(Oc2ccc(NC(=O)N3Cc4ccccc4C3)cc2)CC1` (stereo not given), in the data set on PC-3 (Homo sapiens, PC-3, 120 h), the IC50 came to 48 nM. Besides, the results for the CL free in the data set with Liver [1] and in the data set with Liver [2] were 2780 mL/min/kg and 633 mL/min/kg, respectively.
Turning to `CC(C)CCNC(=O)c1ccc(NC(=O)N2Cc3ccncc3C2)cc1`, in the data set with PC-3 (pc-3), the IC50 was found to be 8.4 nM.
As to `CC(C)C[C@@H](CO)NC(=O)c1ccc(NC(=O)N2Cc3ccccc3C2)cc1`, in the data set on PC-3 (Homo sapiens, PC-3, 120 h), the IC50 amounted to 66 nM. The values for the CL free with Liver [1] and in the data set with Liver [2] were 115 mL/min/kg and 56.7 mL/min/kg, respectively. Further, the solubility in data set [3] is less than 5 µM.
With `O=C(Nc1ccc(C2=CCN(C(=O)c3ccccc3)CC2)cc1)N1Cc2ccccc2C1`, the IC50 in the data set on PC-3 (Homo sapiens, PC-3, 120 h) was 8.1 nM. Further, in the data set with Liver [2], the CL free came out at 217 mL/min/kg.
In the case of `O=C(Nc1ccc(C2CCN(C(=O)c3ccccc3)CC2)cc1)N1Cc2ccccc2C1`, in the data set with PC-3 (Homo sapiens, PC-3, 120 h), the half-maximal inhibitory concentration (IC50) came to 2.8 nM. For the same molecule, the CL free in the data set with Liver [1] is 983 mL/min/kg; in the data set on Liver [2] it was 183 mL/min/kg.

The record behind these values is ChEMBL document CHEMBL4033748, “SAR and characterization of non-substrate isoindoline urea inhibitors of nicotinamide phosphoribosyltransferase (NAMPT)” (Bioorg Med Chem Lett, 2017).
